Legend:
BTK [1] = target: T1, BTK (Homo sapiens (Human), UniProt Q06187); experiment: Ramos RA1 cell lysis and immunoassay, total BTK degradation; assay type: cell-based; parameters: key to % BTK degradation (RAMOS, 24 h): Y: BTK bound in cells and BTK degradation occurred; concentration or dose not given beside the values; key to % BTK degradation (RAMOS, 10 uM, 24 h): Y: EGFR bound in cells and EGFR degradation occurred; details: RAMOS cells
Method in brief: (§1)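 Ramos RA1 cells treated with compound or DMSO for 24 h at 37° C., lysed in RIPA, analysed by Simple Western. Total BTK normalised to β-actin, pBTK (Y223) to total-protein reagent; both expressed relative to DMSO control.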

EGFR [2] = target: T2, EGFR (Homo sapiens (Human), UniProt P00533); experiment: A549 cell lysis and immunoassay, total EGFR degradation; assay type: cell-based; parameters: key: Y: EGFR bound in cells and EGFR degradation occurred; details: A549 cells; for EGFR degradation (A549, compound concentration, 24 h): compound concentration 10, 24 h
T2 sequence (P00533 25-1210): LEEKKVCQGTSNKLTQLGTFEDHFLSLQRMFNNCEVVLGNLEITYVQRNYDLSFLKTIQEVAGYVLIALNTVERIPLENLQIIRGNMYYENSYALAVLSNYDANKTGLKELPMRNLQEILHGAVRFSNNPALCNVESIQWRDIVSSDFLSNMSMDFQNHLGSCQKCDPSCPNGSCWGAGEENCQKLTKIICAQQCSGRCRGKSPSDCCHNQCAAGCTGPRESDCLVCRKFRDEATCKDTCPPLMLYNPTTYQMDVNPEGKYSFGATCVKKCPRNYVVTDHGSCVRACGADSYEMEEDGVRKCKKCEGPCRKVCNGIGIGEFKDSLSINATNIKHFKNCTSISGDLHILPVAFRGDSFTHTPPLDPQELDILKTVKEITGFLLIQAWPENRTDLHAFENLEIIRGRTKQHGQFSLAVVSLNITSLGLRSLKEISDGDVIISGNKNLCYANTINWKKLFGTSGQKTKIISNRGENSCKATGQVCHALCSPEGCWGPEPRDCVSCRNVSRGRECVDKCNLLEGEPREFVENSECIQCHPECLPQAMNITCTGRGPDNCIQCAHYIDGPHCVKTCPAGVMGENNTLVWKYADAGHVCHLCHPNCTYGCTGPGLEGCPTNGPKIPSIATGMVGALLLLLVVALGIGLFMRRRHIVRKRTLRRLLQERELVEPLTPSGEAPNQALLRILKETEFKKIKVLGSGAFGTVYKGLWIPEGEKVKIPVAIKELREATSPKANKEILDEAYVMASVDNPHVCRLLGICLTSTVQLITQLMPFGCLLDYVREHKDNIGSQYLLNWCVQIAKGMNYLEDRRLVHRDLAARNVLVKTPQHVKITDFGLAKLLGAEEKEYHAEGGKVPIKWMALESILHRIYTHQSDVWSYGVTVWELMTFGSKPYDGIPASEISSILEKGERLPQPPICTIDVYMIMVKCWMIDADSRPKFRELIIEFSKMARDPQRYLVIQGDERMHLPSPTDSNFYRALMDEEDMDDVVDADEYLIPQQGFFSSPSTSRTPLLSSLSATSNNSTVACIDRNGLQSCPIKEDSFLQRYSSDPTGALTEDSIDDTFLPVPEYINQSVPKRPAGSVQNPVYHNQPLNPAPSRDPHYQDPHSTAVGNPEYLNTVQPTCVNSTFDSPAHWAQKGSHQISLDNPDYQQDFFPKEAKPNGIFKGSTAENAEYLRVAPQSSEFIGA
Method: A549 cells (ATCC) were cultured in Dulbecco's Modified Eagle's Medium (DMEM) (Wisent) supplemented with 10% FBS and 1% penicillin/streptomycin. Cells were seeded in 6-well plates at 530,000 cells/well and incubated at 37° C., 5% CO2 for 16 hours. Cells were starved in DMEM containing 1% FBS for 4 hours before they were treated with the indicated concentrations of compound or DMSO alone and incubated at 37° C., 5% CO2 for 24 hours. Prior to cell harvest and lysis, 50 ng/ml human epidermal growth factor (hEGF) (Sigma) was added to the cells and incubated at 37° C., 5% CO2 for 10 minutes. Conditioned media was discarded, and adherent cells were washed with PBS before they were scraped on ice. Cell suspensions were centrifugated at 2,000 RPM for 5 minutes at 4° C. and supernatants were discarded. Cell pellets were resuspended with 1× RIPA buffer (Millipore) and incubated on ice for 15 minutes. Protein lysates were extracted by centrifugating at 20,000 RPM for 20 minutes at 4° C. Proteins were separated and total EGFR protein levels were quantified by Simple Western Immunoassay (ProteinSimple) using the Protein Normalization Assay Module for Jess according to the manufacturer's protocol, using a protein concentration of 0.125 μg/μl and an antibody targeting EGFR (clone #EP38Y, Abcam) diluted to 1:400. Phosphorylated EGFR protein levels were quantified with the same assay using a protein concentration of 1 μg/μl and an antibody targeting pEGFR (Y1068) (Cell Signalling) diluted to 1:25. EGFR and phosphorylated EGFR levels were normalized to the Jess Protein Normalization Reagent loading control and subsequently to the DMSO control.

EGFR [3] = target: T2, EGFR; experiment: Jump dilution experiment, EGFR; assay type: biochemical; details: 1.5-h incubation, 46 nM EGFR, 10×IC50 compound, 100-fold dilution
Method: Six compounds (used at 10 times their IC50 concentrations) were pre incubated with EGFR (at 46 nM or 100-fold the normal assay concentration) for 1.5 h at room temperature. Sample containing only DMSO vehicle was used as a positive (full activity) control while sample with no enzyme was used as a negative (zero activity) control. After the preincubation, the mixture was diluted 100-fold into a reaction mixture containing 0.5 uM biotinylated substrate and 1.57 uM ATP and the reaction was allowed to proceed for various time points (2, 5, 10, 15, 30, 40, 45 and 60 min), at which the reaction was terminated by adding 1 ul of 0.5 M EDTA. 31.25 nM SA-XL665 and 100-fold diluted europium labelled antibody (Eu-Ab), diluted in 1× detection buffer, was added as detection mixture. After 60 min of incubation, the fluorescence emission was measured at 620 nm and 665 nm. The ratio of Em 665 nm to Em 620 nm was proportional to the amount of substrate phosphorylated by the kinase.

BTK [4] = target: T1, BTK; experiment: Ramos RA1 cell lysis and immunoassay, phospho-BTK (Y223) inhibition; assay type: cell-based; parameters: key: X: BTK bound and autophosphoration of BTK inhibited in cells; details: RAMOS cells, compound concentration 1 μM
Method in brief: as §1

T1 sequence (Q06187 whole entry): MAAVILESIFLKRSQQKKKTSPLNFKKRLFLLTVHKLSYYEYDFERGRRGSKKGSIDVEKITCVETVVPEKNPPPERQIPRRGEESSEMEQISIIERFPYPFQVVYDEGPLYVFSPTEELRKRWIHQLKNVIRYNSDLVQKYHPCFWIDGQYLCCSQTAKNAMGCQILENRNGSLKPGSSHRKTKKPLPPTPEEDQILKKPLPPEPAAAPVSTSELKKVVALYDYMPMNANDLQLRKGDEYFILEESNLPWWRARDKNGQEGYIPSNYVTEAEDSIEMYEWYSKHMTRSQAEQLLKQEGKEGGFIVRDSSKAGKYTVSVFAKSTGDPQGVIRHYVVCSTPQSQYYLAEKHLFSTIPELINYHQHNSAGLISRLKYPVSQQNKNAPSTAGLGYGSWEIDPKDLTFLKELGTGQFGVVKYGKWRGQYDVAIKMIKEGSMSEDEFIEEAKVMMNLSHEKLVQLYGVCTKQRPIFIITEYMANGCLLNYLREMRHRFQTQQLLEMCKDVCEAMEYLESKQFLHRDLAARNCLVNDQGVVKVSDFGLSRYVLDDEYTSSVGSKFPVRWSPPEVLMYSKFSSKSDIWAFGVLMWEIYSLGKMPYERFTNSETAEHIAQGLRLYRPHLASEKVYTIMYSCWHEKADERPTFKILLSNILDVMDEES

SMILES	% BTK degradation (RAMOS, 24 h) (BTK [1])	EGFR degradation (A549, 1 μM, 24 h) (EGFR [2])	EGFR degradation (A549, compound concentration, 24 h) (EGFR [2])	residual activity of EGFR after jump dilution, relative to enzyme incubated with DMSO alone (EGFR [3])	% BTK degradation (RAMOS, 10 uM, 24 h) (BTK [1]; 10 uM)	pBTK inhibition (RAMOS, 24 h) (BTK [4])
CS(=O)(=O)c1c(F)c(F)c(F)c(F)c1Nc1cc2c(Nc3ccc(F)c(Cl)c3)ncnc2cc1O[C@H]1CCOC1 [Compound I-2, (S)—N^4-(3-chloro-4-fluorophenyl)-N^6-(2,3,4,5-tetrafluoro-6-(methylsulfonyl)phenyl)-7-((tetrahydrofuran-3-yl)oxy)quinazoline-4,6-diamine]	Y	Y	Y	less than 20%		
C[S+]([O-])c1c(F)c(F)c(F)c(F)c1Nc1cc2c(Nc3ccc(F)c(Cl)c3)ncnc2cc1O[C@H]1CCOC1 (stereo partly drawn) [Compound I-4, N^4-(3-chloro-4-fluorophenyl)-N^6-(2,3,4,5-tetrafluoro-6-(methylsulfinyl)phenyl)-7-(((S)-tetrahydrofuran-3-yl)oxy)quinazoline-4,6-diamine]	Y	Y	Y	less than 20%	Y	
C[S+]([O-])c1c(F)c(F)c(F)c(F)c1C(=O)Nc1cc2c(Nc3ccc(F)c(Cl)c3)ncnc2cc1OC1CCOC1 (stereo not shown) [Compound I-3]	Y		Y	less than 20%		X

Reference: patent publication US20240018153A1, “BENZENESULFONAMIDE DERIVATIVES AND USES THEREOF” (2692372 ONTARIO, INC., priority 2020, published 2024)
